Test results from article PMC9482650, “Quantitative fragmentomics allow affinity mapping of interactomes” (Nature Communications, 2022).
Each block holds one molecule with its values, some of them ahead of it. Square brackets hold non-standard residues; d marks the D form. Ends that are not written are not given here. Peptide text beside a SMILES is read from it. pS = N[C@@H](COP(=O)(O)O)C(=O)O

Key:
SNTG2 PDZ [1] = molecular target: T1, SNTG2 PDZ (Homo sapiens, UniProt Q9NY99); assay: Competitive fluorescence polarization (FP) assay; type: binding; settings: read-out: pKd FP (converted)
T1 sequence (Q9NY99 73-156 limits assumed): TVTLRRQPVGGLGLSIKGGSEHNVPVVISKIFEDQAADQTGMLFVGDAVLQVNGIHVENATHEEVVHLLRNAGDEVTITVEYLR

SNTG2 PDZ [2] = molecular target: T1, SNTG2 PDZ; assay: Holdup assay; type: binding; settings: composite holdup affinity; 0.00=below quantification threshold; read-out: COMP pKd (converted)
SYNJ2BP PDZ = molecular target: T2, SYNJ2BP PDZ (Homo sapiens, UniProt P57105); assay: Holdup assay; type: binding; settings: composite holdup affinity; 0.00=below quantification threshold; read-out: COMP pKd (converted)
T2 sequence (P57105 13-100 limits assumed): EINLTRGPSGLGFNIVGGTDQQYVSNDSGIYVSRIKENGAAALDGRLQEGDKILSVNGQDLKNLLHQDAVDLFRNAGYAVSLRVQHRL

DLG1_1/2 = settings: SPR; ref Kim et al 1998; cited from earlier work
Excerpt: Supplement 41467_2022_33018_MOESM4_ESM.xlsx, sheet "reference DMI interactome" | column: Affinity (mM); pKd, measured in literature

HeLa cell extract preys = assay: PDZ-AP-MS, biotinylated MBP-PDZ baits; type: binding, human; settings: PDZ-AP-MS fold change of the PBM-protein prey
How it was run: (§1)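 Biotinylated His6-AviTag-MBP-PDZ baits, or MBP alone, saturated streptavidin resin and were then biotin-blocked. Each was incubated with 1 mg cell lysate for 2 h at 4 °C, washed, and eluted in 8 M urea. Eluates were digested with Lys-C/trypsin, run by nanoLC-MS/MS on an Orbitrap Elite (top20 CID) and searched against human SwissProt.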

HaCat cell extract preys = assay: PDZ-AP-MS, biotinylated MBP-PDZ baits; type: binding, human
How it was run: as §1

[3] = system: Jurkat cell extract preys; assay: PDZ-AP-MS, biotinylated MBP-PDZ baits; type: binding, human
How it was run: as §1

TX1BP3 PDZ = molecular target: T3, TX1BP3 PDZ (Homo sapiens, UniProt O14907); assay: Holdup assay; type: binding; settings: PBM motif of the named protein vs TX1BP3 PDZ; read-out: pKd values – domain-motif, TX1BP3 (converted)
T3 sequence (O14907 15-112 limits assumed): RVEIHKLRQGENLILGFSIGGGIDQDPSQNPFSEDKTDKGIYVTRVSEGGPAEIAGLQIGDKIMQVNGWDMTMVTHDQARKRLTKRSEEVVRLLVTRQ

SCRIB2 PDZ = molecular target: T4, SCRIB2 PDZ (Homo sapiens, UniProt Q14160); assay: Holdup assay; type: binding; settings: PBM motif of the named protein vs SCRIB_2 PDZ; read-out: pKd values – domain-motif, SCRIB_2 (converted)
T4 sequence (Q14160 862-950 limits assumed): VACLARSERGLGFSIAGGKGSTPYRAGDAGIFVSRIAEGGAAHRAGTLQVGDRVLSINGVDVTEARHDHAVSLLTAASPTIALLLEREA

SNX27 PDZ = SNX27 PDZ (Homo sapiens, UniProt Q96L92); assay: Holdup assay; type: binding
SCRIB_1 PDZ = SCRIB_1 PDZ (Homo sapiens, UniProt Q14160); assay: Holdup assay; type: binding; settings: PBM motif of the named protein vs SCRIB_1 PDZ; read-out: pKd values – domain-motif, SCRIB_1 (converted)
Chain of SCRIB_1 PDZ (Q14160 728-815 limits assumed): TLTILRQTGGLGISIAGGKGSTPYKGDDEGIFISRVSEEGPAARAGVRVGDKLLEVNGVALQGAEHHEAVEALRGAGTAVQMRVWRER

DLG1_1 PDZ = DLG1_1 PDZ (Homo sapiens, UniProt Q12959); assay: Holdup assay; type: binding; settings: PBM motif of the named protein vs DLG1_1 PDZ; read-out: pKd values – domain-motif, DLG1_1 (converted)
DLG1_2 PDZ = DLG1_2 PDZ (Homo sapiens, UniProt Q12959); assay: Holdup assay; type: binding; settings: PBM motif of the named protein vs DLG1_2 PDZ; read-out: pKd values – domain-motif, DLG1_2 (converted)
[4] = PDZ-AP-MS fold change of the PBM-protein prey, bait MBP-PDZ DLG1_1
[5] = PDZ-AP-MS fold change of the PBM-protein prey, bait MBP-PDZ DLG1_2
[6] = PDZ-AP-MS fold change of the PBM-protein prey, bait MBP-PDZ SCRIB_1
[7] = PDZ-AP-MS fold change of the PBM-protein prey, bait MBP-PDZ SCRIB_2
[8] = PDZ-AP-MS fold change of the PBM-protein prey, bait MBP-PDZ SNX27
[9] = PDZ-AP-MS fold change of the PBM-protein prey, bait MBP-PDZ TX1BP3
[10] = bait DLG1_1 PDZ, fold change of prey
[11] = bait DLG1_2 PDZ, fold change of prey
[12] = bait SCRIB_1 PDZ, fold change of prey
[13] = bait SCRIB_2 PDZ, fold change of prey
[14] = bait SNX27 PDZ, fold change of prey
[15] = bait TX1BP3 PDZ, fold change of prey

Kd (SNTG2 PDZ [1]): 377 µM
Kd (SNTG2 PDZ [2]): 166 µM
Molecule: CC[C@H](C)[C@H](NC(=O)[C@H](CCC(N)=O)NC(=O)[C@@H](NC(=O)[C@H](Cc1c[nH]cn1)NC(=O)[C@H](CCC(N)=O)NC(=O)[C@H](CC(=O)O)NC(=O)[C@H](CCC(=O)O)NC(=O)[C@H](CC(=O)O)NC(=O)CCC(=O)NCCCOCCOCCOCCCNC(=O)CCCC[C@@H]1SC[C@@H]2NC(=O)N[C@@H]21)[C@@H](C)O)C(=O)N[C@H](C(=O)N[C@@H](CCCCNC(C)=O)C(=O)N[C@H](C(=O)O)C(C)C)[C@@H](C)O [PTEN_Ac]

Molecule: CC(C)C[C@H](NC(=O)[C@@H](NC(=O)[C@@H](NC(=O)[C@H](COP(=O)(O)O)NC(=O)[C@@H]1CCCN1C(=O)[C@H](CC(C)C)NC(=O)[C@H](CCCCN)NC(=O)[C@H](CCCNC(=N)N)NC(=O)[C@@H](NC(=O)[C@@H](N)CCCNC(=N)N)C(C)C)[C@@H](C)O)[C@@H](C)O)C(=O)O [p-3 phosphorylated RPS6KA1] (H-RVRKLP[pS]TTL-OH)
Kd (SYNJ2BP PDZ): 33.1 µM

Molecule: RVRKLPSTTL [RPS6KA1]
Kd (SYNJ2BP PDZ): 151 µM

Molecule: SSLQSLETSV-OH [ATP2B4]
pKd, measured in literature (DLG1_1/2): 8.785
Fold changes, HeLa, DLG1_1 (HeLa cell extract preys; bait MBP-PDZ DLG1_1): 1.011
Fold changes, HeLa, DLG1_2 (HeLa cell extract preys; bait MBP-PDZ DLG1_2): 4.653
Fold changes, HeLa, SCRIB_1 (HeLa cell extract preys; bait MBP-PDZ SCRIB_1): 16.1327
Fold changes, HeLa, SCRIB_2 (HeLa cell extract preys; bait MBP-PDZ SCRIB_2): 1.595
Fold changes, HeLa, SNX27 (HeLa cell extract preys; bait MBP-PDZ SNX27): 14.9763
Fold changes, HeLa, TX1BP3 (HeLa cell extract preys; bait MBP-PDZ TX1BP3): 0.7931
Fold changes, HaCat, DLG1_1 (HaCat cell extract preys; [4]): 6.858
Fold changes, HaCat, DLG1_2 (HaCat cell extract preys; [5]): 9.323
Fold changes, HaCat, SCRIB_1 (HaCat cell extract preys; [6]): 1.193
Fold changes, HaCat, SCRIB_2 (HaCat cell extract preys; [7]): 2.996
Fold changes, HaCat, SNX27 (HaCat cell extract preys; [8]): 25.0597
Fold changes, HaCat, TX1BP3 (HaCat cell extract preys; [9]): 1.007
Ratio DLG1_1/MBP (HaCat cell extract preys; [10]): 6.858
Ratio DLG1_2/MBP (HaCat cell extract preys; [11]): 9.323
Ratio SCRIB_1/MBP (HaCat cell extract preys; [12]): 1.193
Ratio SCRIB_2/MBP (HaCat cell extract preys; [13]): 2.996
Ratio SNX27/MBP (HaCat cell extract preys; [14]): 25.0597
Ratio TX1BP3/MBP (HaCat cell extract preys; [15]): 1.007
Fold changes, Jurkat, DLG1_1 [3, 4]: 3.92
Fold changes, Jurkat, DLG1_2 [3, 5]: 17.9481
Fold changes, Jurkat, SCRIB_1 [3, 6]: 13.9686
Fold changes, Jurkat, SCRIB_2 [3, 7]: 1.428
Fold changes, Jurkat, SNX27 [3, 8]: 34.2386
Fold changes, Jurkat, TX1BP3 [3, 9]: 1.643
Ratio DLG1_1/MBP [3, 10]: 3.92
Difference log2 ([3]; bait DLG1_2 PDZ vs MBP, enrichment of prey): 4.166
Ratio DLG1_2/MBP [3, 11]: 17.9481
Ratio SCRIB_1/MBP [3, 12]: 13.9686
Ratio SCRIB_2/MBP [3, 13]: 1.428
Ratio SNX27/MBP [3, 14]: 34.2386
Ratio TX1BP3/MBP [3, 15]: 1.643

Kd (TX1BP3 PDZ): 61.7 µM
Kd (SCRIB2 PDZ): 19.1 µM
Kd (SNX27 PDZ): 2 µM
Kd (SCRIB_1 PDZ): 2.95 µM
Kd (DLG1_1 PDZ): 35.5 µM
Kd (DLG1_2 PDZ): 13.8 µM
Molecule: VLRLQSETSV [VANGL1]
